Reference: paper PMC10564737, “Structure-based design of a phosphotyrosine-masked covalent ligand targeting the E3 ligase SOCS2” (Nature Communications, 2023)
Where “and” joins values, the source holds several entries; their conditions need not be identical. Equal values may be shown once.

How the values were obtained:
SBC2 [1] = target: T1, SBC2 (Homo sapiens, UniProt O14508); experiment: Isothermal titration calorimetry (ITC), direct titration; type: binding; conditions: for Kd: ITC KD, direct ITC, 298 K
T1 construct: SOCS2 (amino acids 32–198); His6 (N, cleaved yes); made in house; host or cells: E. coli BL21(DE3)
T1 sequence (O14508 32-198): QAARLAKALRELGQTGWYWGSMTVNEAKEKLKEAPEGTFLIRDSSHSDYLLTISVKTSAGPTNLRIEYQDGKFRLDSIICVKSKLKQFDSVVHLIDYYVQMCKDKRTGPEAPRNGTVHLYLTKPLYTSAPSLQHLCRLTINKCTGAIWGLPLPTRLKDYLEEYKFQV
T1 sequence (Q15370 1-104 partner limits assumed): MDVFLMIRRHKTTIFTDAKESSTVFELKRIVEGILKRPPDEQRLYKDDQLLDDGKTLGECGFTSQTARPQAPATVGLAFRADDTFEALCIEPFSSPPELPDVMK
T1 sequence (Q15369 17-112 partner limits assumed): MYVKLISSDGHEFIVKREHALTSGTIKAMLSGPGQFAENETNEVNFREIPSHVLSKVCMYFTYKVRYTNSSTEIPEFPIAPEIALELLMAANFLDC
Experimental: Experiments were performed with ITC200 instrument (Malvern) in 100 mM HEPES pH 7.5, 50 mM NaCl, 0.5 mM TCEP at 298 K. The ITC titration consisted of 0.4 μl initial injection (discarded during data analysis) followed by 19 of 2 μl injections at 120 s interval between injections. 1 mM of the ligands in 2–4% DMSO were titrated into 100 μM SBC2. […] Binding data was subtracted from a control titration where ligand was titrated into buffer, and fitted using a one-set-of-site binding model to obtain dissociation constant (Kd), binding enthalpy (ΔH), and stoichiometry (N) using MicroCal PEAQ-ITC Analysis Software1.1.0.1262 and MicroCal ITC-ORIGIN Analysis Software 7.0 (Malvern).

SBC2 [2] = target: T1, SBC2; experiment: Surface plasmon resonance (SPR) with SBC2 immobilized on the chip; type: binding; conditions: for Kd: Table 2, second-round library, n = 1
From the text: First, we decided to optimize the N-terminal region of 1 while maintaining the N-methylamide group at the C-terminus. To generate analogs rapidly, we employed a solid phase synthesis using methyl indole AM resin. After Fmoc deprotection, the resin was loaded with Fmoc-Tyr (PO(OBzl)2)-OH[29]. Subsequent coupling with various commercially available carboxylic acids and cleavage with TFA allowed the rapid synthesis of N-methylcarboxamide phosphotyrosines (Supplementary Fig. 1). We introduced different substituents at the N-terminus to cover a range of physicochemical properties (e.g. alicyclic, heterocyclic, aromatic with electron-withdrawing and electron-donating groups) to maximize potential interactions (see Table 1 for representative examples). Binding affinities of the synthesized compounds for SOCS2 were measured via two orthogonal biophysical binding assays: (1) surface plasmon resonance (SPR) with SBC2 immobilized on the chip (Supplementary Fig. 7); and (2) ^19F ligand-observed displacement NMR assays, providing two orthogonal biophysical measurements of dissociation constants (KD)[29],[31]. We found an excellent correlation between the KD values measured via the two techniques (Table 1). Para-substituted benzyl moieties yielded the greatest contributions to binding affinity and there were only slight differences between electron-withdrawing groups such as a methyl ester and electron-donating such as methoxy group.
SPR experiments were performed using a Biacore S200 instrument (GE Healthcare) in 20 mM HEPES pH 7.5, 150 mM NaCl, 1 mM TCEP, 0.005% Tween20, 2% DMSO buffer at 10 °C. Biotinylated SBC2 was immobilized onto a chip surface (the final surface density of biotinylated SBC2 was ~3000–4000 RU). AviTagged-SBC was biotinylated using BirA enzyme as per manufacturer’s protocol (Avidity). Compounds were serially diluted in the running buffer and injected individually: contact time 60 s, flow rate 30 μL/min, dissociation time 150 s, using a stabilization period of 30 s and syringe wash (50% DMSO) between injections. Data analysis was carried out using Biacore Evaluation Software (GE Healthcare). All data were double-referenced for reference surface and blank injection. The processed sensograms were fit to a steady-state affinity using a 1:1 binding model for KD estimation.

[3] = target: T2, HiBiT-SOCS2 fusion in HeLa cells (Homo sapiens, UniProt O14508); experiment: Split-NanoLuc CETSA, live-cell mode; type: cell-based; design: Produrg CETSA screening, raw signal: reference not given here; conditions: for Produrg CETSA screening, raw signal: 50uM 20hrs
T2 construct: encoding SOCS2 (32–198) in pBiT3.1-N expression vector; expressed in transfected cells; host or cells: HeLa
T2 sequence (O14508 32-198): as the sequence (O14508 32-198) above
T2 sequence (Q15370 whole entry, further chain, the tested form may be a part): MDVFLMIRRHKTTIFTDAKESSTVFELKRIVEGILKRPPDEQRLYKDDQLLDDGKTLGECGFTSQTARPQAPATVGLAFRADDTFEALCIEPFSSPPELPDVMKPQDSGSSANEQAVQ
T2 sequence (Q15369 whole entry, further chain, the tested form may be a part): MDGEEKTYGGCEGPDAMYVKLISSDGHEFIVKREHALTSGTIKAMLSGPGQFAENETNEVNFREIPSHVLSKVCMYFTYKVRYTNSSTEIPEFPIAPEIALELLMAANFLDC
Experimental: One of the challenges with small-molecule binders displaying on-target activity with recombinant proteins, is to translate their utility to a cellular context. […] One of the advantages of CETSA is that target engagement can be monitored without the need for the development of a cell-permeable tracer molecule.
We utilized CETSA in a live-cell mode to evaluate the efficacy and rank the different prodrugs. We treated live HeLa cells with 50 μM compound (prodrugs) for 20 h and monitored Tagg shift as a proxy for the combo of prodrug permeability and unmasking (Fig. 4d). […] The observation could be because the POM group unmasking requires only esterase unlike the reliance of compounds 21–23 on esterase and phosphoramidase for unmasking an aryloxy phosphoramidate group.
N-terminal HiBiT-SOCS2 fusion was generated by encoding SOCS2 (32–198) in pBiT3.1-N expression vector (Promega). The transfection and target engagement assay were performed by modifying a NanoLuc target engagement protocol (Promega) with some small modifications. Briefly, HiBiT-SOCS2 fusion construct was transfected into HeLa cells using FuGENE HD (Promega) according to the manufacturer’s protocol. HiBiT-SOCS2 fusion construct was diluted into Transfection Carrier DNA (Promega) at a mass ratio of 1:100 or 1:10 for permeabilised and live-cell CETSA respectively. FuGENE HD was added at a ratio of 1:3 (μg DNA: μL FuGENE HD). 1 part (vol) of FuGENE HD complexes thus formed were combined with 20 parts (vol) of HeLa cells suspended at a density of 2 × 10^5 cells/mL, followed by incubation in a humidified, 37 °C + 5% CO2 incubator. After 20 h of incubation HeLa cells were detached and resuspended at a density of 2.5 × 10^5 cells/mL in Opti-MEM media without serum or phenol red but supplemented with protease inhibitor cocktail (Roche). Compounds stocks were added to cell suspension to maintain a final DMSO concentration of 1%. For the permeabilised assay format, 96-well PCR plates (Thermo) were pre-treated with digitonin to have a final well concentration of 50 μg/ml. 50 μl Opti-MEM cell suspension was then aliquoted to each well of the 96-well plate. The plates are then covered with microporous tape sheet (Qiagen) prior to incubation in a humidified, 37 °C + 5% CO2 incubator. Post-incubation we heat the PCR plates in 16-point temperature (split across two runs) curve spanning degrees 40-72 °C temperature span (CFX96 Touch Real-Time PCR Detection System, BioRad). The thermal cycler block was allowed to rise to the designated temperatures prior to placement of the PCR plates into the heating block and heat treatment for 3 min. After incubating the plates at room temperature for over 3 min, 50 μl of the Nano-Glo HiBiT Lytic mix (Promega) was added to each well. Samples were mixed by pipetting and placing the plate on an orbital shaker (600 rpm) for 5 min. 20 μl of the samples (in triplicates) were transferred to a AlphaPlate-384 plate (Perkin Elmer). Luminescence was recorded with GloMax Discover Microplate Reader (Promega). To generate apparent Tagg curves, the data is first converted to percent stabilized by relating the observed luminescence to the luminescence of the lowest temperature (40 °C) for that given sample. Data are then fitted to obtain apparent Tagg values using the Boltzmann Sigmoid equation using Graphpad Prism 9.

## Cc1cccc(CNC(=O)[C@H](Cc2ccc(OP(=O)(O)O)cc2)NC(=O)Cc2ccc(F)cc2)c1 [Compound 10, (S)-4-(2-(2-(4-fluorophenyl)acetamido)-3-((3-methylbenzyl)amino)-3-oxopropyl)phenyl phosphate]
SBC2 [1]
  ITC ΔG: -8.12 kcal/mol
  ITC −TΔS: -2.31 kcal/mol
  Kd: 1100 nM
SBC2 [2]; SPR
  improvement of binding affinity compared to 5: 10 fold
SBC2 [2]
  Kd: 3700 nM

## C=CCc1cccc(CNC(=O)[C@H](Cc2ccc(OP(=O)(O)O)cc2)NC(=O)Cc2ccc(F)cc2)c1 [Compound 14, (S)-4-(3-((3-allylbenzyl)amino)-2-(2-(4-fluorophenyl)acetamido)-3-oxopropyl)phenyl phosphate]
SBC2 [1]
  ITC ΔG: -8.61 kcal/mol
  ITC ΔH: -6.31 kcal/mol
  ITC −TΔS: -2.26 kcal/mol
  Kd: 480 nM
SBC2 [2]
  Kd: 2400 nM

## Cc1cc(CNC(=O)[C@H](Cc2ccc(OP(=O)(O)O)cc2)NC(=O)Cc2ccc(F)cc2)ccc1F [Compound 11, (S)-4-(3-((4-fluoro-3-methylbenzyl)amino)-2-(2-(4-fluorophenyl)acetamido)-3-oxopropyl)phenyl phosphate]
SBC2 [1]
  ITC ΔG: -8.23 kcal/mol
  ITC ΔH: -5.25 kcal/mol
  ITC −TΔS: -2.98 kcal/mol
  Kd: 1000 nM
SBC2 [2]
  Kd: 2700 nM

## C=CCc1cc(CNC(=O)[C@H](Cc2ccc(OP(=O)(O)O)cc2)NC(=O)Cc2ccc(F)cc2)ccc1F [Compound 13]
SBC2 [1]
  ITC ΔG: -8.75 kcal/mol
  ITC −TΔS: -1.62 kcal/mol
  Kd: 380 nM
SBC2 [2]
  Kd: 2400 nM

## C[C@H](NP(=O)(Oc1ccc(C[C@H](NC(=O)Cc2ccc(F)cc2)C(=O)NCc2cccc(NC(=O)CCl)c2)cc1)Oc1cccc2ccccc12)C(=O)OCc1ccccc1 (stereo partly shown) [Compound 23]
[3]; n=1, temperature point 5 of 16, temperature not given
  Produrg CETSA screening, raw signal: 69363 and 80806 and 112884
[3]; n=1, temperature point 6 of 16, temperature not given
  Produrg CETSA screening, raw signal: 96967 and 118352 and 144445
[3]; n=1, temperature point 7 of 16, temperature not given
  Produrg CETSA screening, raw signal: 143643 and 166973 and 192783
[3]; n=1, temperature point 8 of 16, temperature not given
  Produrg CETSA screening, raw signal: 106216 and 128406 and 210436
[3]; n=1, temperature point 9 of 16, temperature not given
  Produrg CETSA screening, raw signal: 167377 and 176709 and 206363
[3]; n=1, temperature point 10 of 16, temperature not given
  Produrg CETSA screening, raw signal: 186703 and 236478 and 300868
[3]; n=1, temperature point 11 of 16, temperature not given
  Produrg CETSA screening, raw signal: 231104 and 290174 and 305287
[3]; n=1, temperature point 12 of 16, temperature not given
  Produrg CETSA screening, raw signal: 354321 and 369048 and 401655
[3]; n=1, temperature point 13 of 16, temperature not given
  Produrg CETSA screening, raw signal: 341517 and 349800 and 466508
[3]; n=1, temperature point 14 of 16, temperature not given
  Produrg CETSA screening, raw signal: 353173 and 365195 and 397047
[3]; n=1, temperature point 15 of 16, temperature not given
  Produrg CETSA screening, raw signal: 381815 and 407106 and 448233
[3]; n=1, temperature point 16 of 16, temperature not given
  Produrg CETSA screening, raw signal: 423512 and 424780 and 453391
[3]; n=2, temperature point 1 of 16, temperature not given
  Produrg CETSA screening, raw signal: 81542 and 84696 and 155298
[3]; n=2, temperature point 2 of 16, temperature not given
  Produrg CETSA screening, raw signal: 72558 and 139894 and 123324
[3]; n=2, temperature point 5 of 16, temperature not given
  Produrg CETSA screening, raw signal: 87834 and 139601 and 100567
[3]; n=2, temperature point 6 of 16, temperature not given
  Produrg CETSA screening, raw signal: 98775 and 175976 and 137381
[3]; n=2, temperature point 7 of 16, temperature not given
  Produrg CETSA screening, raw signal: 152633 and 181253 and 191364
[3]; n=2, temperature point 8 of 16, temperature not given
  Produrg CETSA screening, raw signal: 176015 and 229873 and 213107
[3]; n=2, temperature point 9 of 16, temperature not given
  Produrg CETSA screening, raw signal: 189127 and 214945 and 246245
[3]; n=2, temperature point 10 of 16, temperature not given
  Produrg CETSA screening, raw signal: 212633 and 267460 and 262658
[3]; n=2, temperature point 11 of 16, temperature not given
  Produrg CETSA screening, raw signal: 244590 and 322245 and 338306
[3]; n=2, temperature point 12 of 16, temperature not given
  Produrg CETSA screening, raw signal: 338485 and 407495 and 420421
[3]; n=2, temperature point 13 of 16, temperature not given
  Produrg CETSA screening, raw signal: 375692 and 455999 and 437696
[3]; n=2, temperature point 14 of 16, temperature not given
  Produrg CETSA screening, raw signal: 432064 and 448169 and 475813
[3]; n=2, temperature point 15 of 16, temperature not given
  Produrg CETSA screening, raw signal: 397604 and 474479 and 457905
[3]; n=2, temperature point 16 of 16, temperature not given
  Produrg CETSA screening, raw signal: 400496 and 479946 and 527841
[3]; n=3, Temp, 0C 54.1
  Produrg CETSA screening, raw signal: 44604
[3]; n=3, Temp, 0C 55
  Produrg CETSA screening, raw signal: 39796 and 47150 and 51627
[3]; n=3, Temp, 0C 56
  Produrg CETSA screening, raw signal: 45790 and 51042 and 62078
[3]; n=3, Temp, 0C 57.1
  Produrg CETSA screening, raw signal: 31202 and 38155 and 39301
[3]; n=3, Temp, 0C 59.2
  Produrg CETSA screening, raw signal: 28243 and 27436 and 39233
[3]; n=3, Temp, 0C 62.3
  Produrg CETSA screening, raw signal: 17330 and 19655 and 29378
[3]; n=3, Temp, 0C 66.1
  Produrg CETSA screening, raw signal: 14860 and 24999 and 29256
[3]; n=3, Temp, 0C 71.1
  Produrg CETSA screening, raw signal: 14600 and 19386 and 22788
[3]; Prodrug screen CETSA, live HeLa cells, 50 μM, 20 h, Mean n = 3
  ΔT: 2.28 oC
[3]; Prodrug screen CETSA, single replicates
  ΔT, individual replicates n1-n3: 0.90 oC and 3.19 oC and 2.74 oC
